According to patent US20230265116A1, “DEGRADATION OF (EGFR) BY CONJUGATION OF EGFR INHIBITORS WITH E3 LIGASE LIGAND AND METHODS OF USE” (BEIGENE, LTD., priority 2020, published 2023):
Where two headings read alike, the source gives them in different places.

Legend:
Assay type in all cases: cell-based
EGFR WT (BaF3 WT cells) = target: T1, EGFR WT (BaF3 WT cells) (Homo sapiens, UniProt P00533); assay: EGFR degradation HTRF assay, BaF3 WT cells
T1 construct: expressed in transfected cells; host or cells: BaF3
Experimental: BaF3 WT(wild type), BaF3-LTC(L858R/T790M/C797S) and BaF3-DTC(Del19/T790M/C797S) cells are treated with compounds diluted in 0.2% DMSO cell culture medium and incubate for 16h, 37° C., 5% CO2, H1975-#36, H1975-#28, H1975-#23 and HCC827 cells are treated with compounds diluted in 0.2% DMSO cell culture medium on day 2, incubate for 16h, 37° C., 5% CO2.the final concentriation of compounds in all assay is start with 10 uM, 5-fold dilution, total 8 doses were included.
After 16h treatment, add HTRF lysis buffer to each well; seal the plate and incubate 1 hour at room temperature on a plate shaker; Once the cells are lysed, 16 μL of cell lysate are transferred to a PE 384-well HTRF detection plate; 4 μL of pre-mixed HTRF antibodies are added to each well; Cover the plate with a plate sealer, spin 1000 rpm for 1 min, Incubate overnight at room temperature; Read on BMG PheraStar with HTRF protocol (337 nm-665 nm-620 nm).
The inhibition (degradation) percentage of the compound was calculated by the following equation: Inhibition percentage of Compound=100-100×(Signal-low control)/(High control-low control), wherein signal=each test compound group
High control=Cell group with added DMSO and without compound, indicating microplate readings without EGFR degradation;
Dmax is the maximum percentage of inhibition (degradation).
The IC50 (DC50) value of a compound can be obtained by fitting the following equation
Y=Bottom+(TOP−Bottom)/(1+((IC50/X)^hillslope))
Wherein, X and Y are known values, and IC50, Hillslope, Top and Bottom are the parameters obtained by fitting with software. Y is the inhibition percentage (calculated from the equation), X is the concentration of the compound; IC50 is the concentration of the compound when the 50% inhibition is reached. The smaller the IC50 value is, the stronger the inhibitory ability of the compound is. Vice versa, the higher the IC50 value is, the weaker the inhibitory ability of the compound is; Hillslope represents the slope of the fitted curve, generally around 1*; Bottom represents the minimum value of the curve obtained by data fitting, which is generally 0%±20%; Top represents the maximum value of the curve obtained by data fitting, which is generally 100%±20%. The experimental data were fitted by calculating and analyzing with Dotmatics data analysis software.

[1] = target: T2, EGFR L858R/T790M/C797S (BaF3-LTC cells) (Homo sapiens, UniProt P00533, C797S/L858R/T790M); assay: EGFR degradation HTRF assay, BaF3-LTC cells; details: for Dmax: maximum percentage of degradation, read-out: LTC Dmax (%)
T2 construct: expressed in transfected cells; host or cells: BaF3
Procedure, shortened: (§1)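 EGFR remaining after a 16 h, 37 °C exposure (8 doses, 5-fold steps from 10 uM final, 0.2% DMSO) was quantified by HTRF antibodies in cell lysate. Percent inhibition relative to DMSO control was fitted by four-parameter logistic to give DC50; Dmax denotes maximal degradation.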

EGFR (HCC827 cells) = target: T3, EGFR (HCC827 cells) (Homo sapiens, UniProt P00533, DEL746-750); assay: EGFR degradation HTRF assay, HCC827 cells; details: HCC827, 16h treatment; for Dmax: maximum percentage of degradation
T3 construct: endogenous in cells; host or cells: HCC827
Procedure, shortened: as §1

[2] = target: T4, EGFR L858R/T790M (H1975-clone #36, homozygous) (Homo sapiens, UniProt P00533, L858R/T790M); assay: EGFR degradation HTRF assay, H1975-clone #36 cells; details: H1975 #36, 16h treatment; for Dmax: NCI-H1975, maximum percentage of degradation
T4 construct: designed to specifically target WT EGFR but preserve the L858R/T790M copy; host or cells: H1975-clone #36
Procedure, shortened: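 Eight-point, 5-fold series starting at 10 uM (0.2% DMSO) applied for 16 h, 37 °C, to a WT-EGFR-knockout H1975 clone carrying only L858R/T790M. Lysates read by HTRF overnight. Degradation percentage relative to DMSO control fitted for DC50, with Dmax as maximum degradation.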

[3] = test system: EGFR Del19/T790M/C797S (BaF3-DTC cells); assay: EGFR degradation HTRF assay, BaF3-DTC cells; details: for DTC Dmax (%): maximum percentage of degradation
Procedure, shortened: as §1

[4] = test system: EGFR Del19/T790M/C797S (H1975-clone #28); assay: EGFR degradation HTRF assay, H1975-clone #28 DTC cells; details: H1975 # 28 DTC cells; for DC50: EGFR degradation, IC50 (DC50) from curve fit, read-out: DC50(nM) H1975 # 28 DTC; for Dmax (%) H1975 # 28 DTC: maximum percentage of inhibition (degradation)
Procedure, shortened: (§2)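 Engineered H1975 lines (lentiviral mutant EGFR, endogenous EGFR knocked out, single-clone verified); 16h compound, 37° C., 5% CO2, 0.2% DMSO; 8-point 5-fold series from 10 uM final. HTRF lysate read; % degradation vs DMSO, four-parameter fit → DC50, Dmax.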

[5] = target: T5, EGFR L858R/C797S (BaF3 LC cells) (Homo sapiens, UniProt P00533, C797S/L858R); assay: EGFR degradation HTRF assay, BaF3 LC cells; details: BaF3 LC, 16h treatment; read-out: BaF3 LC DC50
T5 construct: expressed in transfected cells; host or cells: BaF3

[6] = test system: EGFR Del19/C797S (H1975-clone #23); assay: EGFR degradation HTRF assay, H1975-clone #23 DC cells; details: 16h treatment; for H1975 #23 DC Dmax (%): maximum percentage of degradation; for DC50: H1975 #23 DC, read-out: H1975 #23 DC DC50
Procedure, shortened: as §2

[7] = BaF3 WT, 16h treatment, maximum percentage of degradation, read-out: WT Dmax (%)
[8] = BaF3-LTC, 16h treatment, read-out: LTC DC50
[9] = 16h treatment, read-out: DTC DC50
[10] = BaF3-LTC cells, EGFR degradation, IC50 (DC50) from curve fit, read-out: DC50(nM) BaF3-LTC

T4 sequence (P00533 25-1210 T790M/L858R): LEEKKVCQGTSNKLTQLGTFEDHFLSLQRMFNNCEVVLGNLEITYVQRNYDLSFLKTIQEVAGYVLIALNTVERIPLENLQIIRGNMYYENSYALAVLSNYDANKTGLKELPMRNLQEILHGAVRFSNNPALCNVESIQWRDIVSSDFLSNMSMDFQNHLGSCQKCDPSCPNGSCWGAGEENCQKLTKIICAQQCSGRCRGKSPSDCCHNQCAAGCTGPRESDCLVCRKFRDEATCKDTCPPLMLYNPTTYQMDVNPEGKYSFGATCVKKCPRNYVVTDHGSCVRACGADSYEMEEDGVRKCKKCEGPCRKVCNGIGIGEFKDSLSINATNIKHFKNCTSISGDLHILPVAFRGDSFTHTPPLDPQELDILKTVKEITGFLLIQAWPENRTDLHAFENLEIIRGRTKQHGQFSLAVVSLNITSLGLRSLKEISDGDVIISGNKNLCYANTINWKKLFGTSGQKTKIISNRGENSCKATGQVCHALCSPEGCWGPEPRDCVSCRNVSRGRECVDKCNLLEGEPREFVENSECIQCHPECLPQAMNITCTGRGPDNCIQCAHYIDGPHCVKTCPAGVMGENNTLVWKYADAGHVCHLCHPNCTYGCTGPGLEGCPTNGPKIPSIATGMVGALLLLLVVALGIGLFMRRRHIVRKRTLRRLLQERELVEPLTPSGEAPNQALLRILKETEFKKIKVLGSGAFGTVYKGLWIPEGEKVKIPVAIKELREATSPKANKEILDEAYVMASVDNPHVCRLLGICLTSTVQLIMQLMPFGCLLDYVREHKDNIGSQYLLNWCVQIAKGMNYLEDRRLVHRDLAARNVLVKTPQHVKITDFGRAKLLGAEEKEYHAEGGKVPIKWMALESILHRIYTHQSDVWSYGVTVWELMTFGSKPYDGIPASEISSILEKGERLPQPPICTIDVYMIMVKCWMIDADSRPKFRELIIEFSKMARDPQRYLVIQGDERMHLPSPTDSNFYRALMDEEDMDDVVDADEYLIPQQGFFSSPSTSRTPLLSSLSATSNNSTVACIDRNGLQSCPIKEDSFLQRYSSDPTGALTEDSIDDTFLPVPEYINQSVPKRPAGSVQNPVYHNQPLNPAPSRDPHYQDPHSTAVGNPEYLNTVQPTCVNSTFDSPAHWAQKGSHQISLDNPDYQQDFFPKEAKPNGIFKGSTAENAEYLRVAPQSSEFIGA
T3 sequence (P00533 with tags, fused parts or gaps DEL746-750): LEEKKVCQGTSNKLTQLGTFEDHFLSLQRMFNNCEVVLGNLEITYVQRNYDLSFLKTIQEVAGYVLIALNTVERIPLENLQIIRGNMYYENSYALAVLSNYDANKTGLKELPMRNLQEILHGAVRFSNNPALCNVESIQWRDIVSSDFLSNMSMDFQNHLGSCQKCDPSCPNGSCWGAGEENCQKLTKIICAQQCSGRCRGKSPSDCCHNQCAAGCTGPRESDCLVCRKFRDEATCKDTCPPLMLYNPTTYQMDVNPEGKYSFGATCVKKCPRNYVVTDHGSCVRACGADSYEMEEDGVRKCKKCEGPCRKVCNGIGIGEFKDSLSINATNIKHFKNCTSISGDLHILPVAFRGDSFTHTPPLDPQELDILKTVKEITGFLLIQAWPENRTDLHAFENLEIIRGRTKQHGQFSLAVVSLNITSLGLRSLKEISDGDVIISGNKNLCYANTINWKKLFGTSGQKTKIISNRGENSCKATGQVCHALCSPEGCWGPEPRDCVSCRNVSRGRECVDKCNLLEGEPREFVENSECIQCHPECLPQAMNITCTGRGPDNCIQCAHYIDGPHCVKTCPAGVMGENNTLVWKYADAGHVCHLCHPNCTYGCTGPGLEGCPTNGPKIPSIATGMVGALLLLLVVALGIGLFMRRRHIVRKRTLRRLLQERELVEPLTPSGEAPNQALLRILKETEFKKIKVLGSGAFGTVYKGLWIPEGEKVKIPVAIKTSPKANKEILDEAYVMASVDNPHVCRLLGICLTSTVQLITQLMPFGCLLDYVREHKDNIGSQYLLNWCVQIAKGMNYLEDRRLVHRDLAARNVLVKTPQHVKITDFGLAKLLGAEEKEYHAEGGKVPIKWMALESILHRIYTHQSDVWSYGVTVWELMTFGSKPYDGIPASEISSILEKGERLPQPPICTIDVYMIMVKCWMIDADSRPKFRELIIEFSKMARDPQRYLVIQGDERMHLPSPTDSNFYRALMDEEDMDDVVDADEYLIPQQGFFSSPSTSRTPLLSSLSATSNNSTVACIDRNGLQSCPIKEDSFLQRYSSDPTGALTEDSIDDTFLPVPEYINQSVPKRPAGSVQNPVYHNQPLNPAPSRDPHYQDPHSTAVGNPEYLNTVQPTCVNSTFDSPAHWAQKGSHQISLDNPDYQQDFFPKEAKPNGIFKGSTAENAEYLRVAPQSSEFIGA
T1 sequence (P00533 25-1210): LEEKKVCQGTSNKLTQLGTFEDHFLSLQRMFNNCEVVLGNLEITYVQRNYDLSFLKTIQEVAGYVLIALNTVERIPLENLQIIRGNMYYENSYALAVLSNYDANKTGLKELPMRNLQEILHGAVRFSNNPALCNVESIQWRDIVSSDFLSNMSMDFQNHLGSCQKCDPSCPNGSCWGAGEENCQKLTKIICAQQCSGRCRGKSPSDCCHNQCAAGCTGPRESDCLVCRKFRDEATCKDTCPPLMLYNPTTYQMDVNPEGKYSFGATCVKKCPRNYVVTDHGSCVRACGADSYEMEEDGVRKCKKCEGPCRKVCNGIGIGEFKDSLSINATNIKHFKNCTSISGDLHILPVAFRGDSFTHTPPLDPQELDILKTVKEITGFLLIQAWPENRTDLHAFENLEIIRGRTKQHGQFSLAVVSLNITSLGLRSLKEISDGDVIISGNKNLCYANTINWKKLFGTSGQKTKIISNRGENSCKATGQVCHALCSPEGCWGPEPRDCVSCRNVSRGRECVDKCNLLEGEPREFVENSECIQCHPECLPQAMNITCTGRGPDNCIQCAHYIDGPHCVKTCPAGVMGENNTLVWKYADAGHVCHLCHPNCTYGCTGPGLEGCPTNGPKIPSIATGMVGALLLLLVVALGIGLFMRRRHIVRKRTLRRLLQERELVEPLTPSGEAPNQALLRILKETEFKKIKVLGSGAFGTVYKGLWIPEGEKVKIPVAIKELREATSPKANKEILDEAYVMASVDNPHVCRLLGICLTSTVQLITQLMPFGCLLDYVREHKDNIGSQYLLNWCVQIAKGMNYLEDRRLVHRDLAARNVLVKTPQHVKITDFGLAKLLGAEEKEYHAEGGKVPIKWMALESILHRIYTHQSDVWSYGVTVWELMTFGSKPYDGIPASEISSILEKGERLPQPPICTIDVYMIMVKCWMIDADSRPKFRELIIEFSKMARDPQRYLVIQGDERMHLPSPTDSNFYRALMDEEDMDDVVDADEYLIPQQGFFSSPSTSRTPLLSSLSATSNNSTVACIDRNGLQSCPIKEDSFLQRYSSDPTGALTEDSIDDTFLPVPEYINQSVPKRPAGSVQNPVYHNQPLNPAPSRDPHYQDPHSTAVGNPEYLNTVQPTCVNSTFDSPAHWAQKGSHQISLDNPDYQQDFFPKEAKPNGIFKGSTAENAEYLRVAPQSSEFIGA
T2 sequence (P00533 25-1210 T790M/C797S/L858R): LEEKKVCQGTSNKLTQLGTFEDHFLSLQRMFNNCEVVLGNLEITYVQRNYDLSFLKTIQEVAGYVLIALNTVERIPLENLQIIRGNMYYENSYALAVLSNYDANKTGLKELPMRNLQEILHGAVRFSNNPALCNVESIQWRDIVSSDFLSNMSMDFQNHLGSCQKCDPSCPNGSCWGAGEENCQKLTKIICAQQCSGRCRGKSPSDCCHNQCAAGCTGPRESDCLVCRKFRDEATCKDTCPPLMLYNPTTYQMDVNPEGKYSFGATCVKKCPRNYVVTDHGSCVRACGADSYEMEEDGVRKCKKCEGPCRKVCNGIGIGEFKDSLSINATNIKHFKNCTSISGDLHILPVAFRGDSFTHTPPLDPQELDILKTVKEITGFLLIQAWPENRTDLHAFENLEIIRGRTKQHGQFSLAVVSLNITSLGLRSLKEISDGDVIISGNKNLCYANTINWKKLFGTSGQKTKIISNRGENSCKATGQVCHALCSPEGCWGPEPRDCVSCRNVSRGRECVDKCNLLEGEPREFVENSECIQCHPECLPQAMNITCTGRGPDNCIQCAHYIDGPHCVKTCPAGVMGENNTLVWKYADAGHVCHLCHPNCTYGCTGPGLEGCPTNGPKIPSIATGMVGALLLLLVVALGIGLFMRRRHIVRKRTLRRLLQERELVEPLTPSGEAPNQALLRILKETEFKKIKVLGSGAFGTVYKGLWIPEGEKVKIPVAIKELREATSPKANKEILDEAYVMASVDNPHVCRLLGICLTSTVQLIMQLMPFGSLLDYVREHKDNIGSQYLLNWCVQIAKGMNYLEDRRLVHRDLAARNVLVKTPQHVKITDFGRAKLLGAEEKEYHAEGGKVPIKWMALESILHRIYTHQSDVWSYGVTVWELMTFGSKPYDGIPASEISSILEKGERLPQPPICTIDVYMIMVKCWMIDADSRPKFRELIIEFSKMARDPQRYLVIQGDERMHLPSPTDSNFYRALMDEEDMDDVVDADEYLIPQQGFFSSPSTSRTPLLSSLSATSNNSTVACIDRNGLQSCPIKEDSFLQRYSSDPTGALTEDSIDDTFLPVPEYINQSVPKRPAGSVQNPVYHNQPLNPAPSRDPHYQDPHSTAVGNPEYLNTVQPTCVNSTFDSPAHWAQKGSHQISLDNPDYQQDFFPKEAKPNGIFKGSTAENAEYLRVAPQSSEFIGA

Row | DC50 (EGFR WT (BaF3 WT cells); BaF3 WT, 16h treatment) [nM] | Dmax (EGFR WT (BaF3 WT cells); [7]) [%] | Dmax ([1]; BaF3-LTC, 16h treatment) [%] | DC50 (EGFR (HCC827 cells)) [nM] | Dmax (EGFR (HCC827 cells)) [%] | DC50 [2] [nM] | Dmax [2] [%] | DC50 [1, 8] [nM] | DC50 [3, 9] [nM] | DC50 [4] [nM] | DC50 [5] [nM] | DC50 [6] [nM] | DC50 [1, 10] [nM] | SMILES | DTC Dmax (%) ([3]; 16h treatment) | Dmax (EGFR WT (BaF3 WT cells); BaF3, read-out: WT Dmax (%)) [%] | DC50 ([3]; read-out: DTC DC50, 16h treatment) [nM] | Dmax (%) H1975 # 28 DTC [4] [%] | H1975 #23 DC Dmax (%) [6] [%]
1 | > 10000 | 26.1 | 95 | – | – | – | – | 12.2 | 8.49 | – | – | – | – | CCc1cc(Nc2ncc(Br)c(Nc3ccc4nccnc4c3P(C)(C)=O)n2)c(OC)cc1N1CCC(N2CCN(CCC3CCN(c4ccc5c(c4)CN(C4CCC(=O)NC4=O)C5=O)CC3)CC2)CC1 (centres unmarked) [Example 70, 3-(5-(4-(2-(4-(1-(4-((5-bromo-4-((5-(dimethylphosphoryl)quinoxalin-6-yl)amino)pyrimidin-2-yl)amino)-2-ethyl-5-methoxyphenyl)piperidin-4-yl)piperazin-1-yl)ethyl)piperidin-1-yl)-1-oxoisoindolin-2-yl)piperidine-2,6-dione] | 91.36 | – | – | – | –
2 | – | – | – | – | – | – | – | – | – | 0.57 | 16.4 | 7.68 | 4.13 | CCc1ccc2c(P(C)(C)=O)c(Nc3nc(Nc4cc(CC)c(N5CCC(N6CCN(C(=O)C7CN(c8cc(F)c([C@H]9CCC(=O)NC9=O)c(F)c8)C7)CC6)CC5)cc4OC)ncc3Br)ccc2n1 [Example 755, (R)-3-(4-(3-(4-(1-(4-((5-bromo-4-((5-(dimethylphosphoryl)-2-ethylquinolin-6-yl)amino)pyrimidin-2-yl)amino)-2-ethyl-5-methoxyphenyl)piperidin-4-yl)piperazine-1-carbonyl)azetidin-1-yl)-2,6-difluorophenyl)piperidine-2,6-dione] | – | – | – | 84.62 | 69.09
3 | – | – | – | – | – | – | – | – | – | 0.608 | 10.1 | 1.69 | 2.31 | CCc1cc(Nc2ncc(Br)c(Nc3ccc4c(=O)n(C)ncc4c3P(C)(C)=O)n2)c(OC)cc1N1CCC(N2CCN(CCc3cccc4c3C3(CC3)C(=O)N4C3CCC(=O)NC3=O)CC2)CC1 (centres unmarked) [Example 756, 3-(4′-(2-(4-(1-(4-((5-bromo-4-((5-(dimethylphosphoryl)-2-methyl-1-oxo-1,2-dihydrophthalazin-6-yl)amino)pyrimidin-2-yl)amino)-2-ethyl-5-methoxyphenyl)piperidin-4-yl)piperazin-1-yl)ethyl)-2′-oxospiro[cyclopropane-1,3′-indolin]-1′-yl)piperidine-2,6-dione] | – | – | – | 80.03 | 73.8

More lines, now with the values behind:

Row | SMILES | DC50 (EGFR WT (BaF3 WT cells); BaF3 WT, 16h treatment) [nM] | Dmax (EGFR WT (BaF3 WT cells); [7]) [%] | Dmax ([1]; BaF3-LTC, 16h treatment) [%] | DC50 (EGFR (HCC827 cells)) [nM] | Dmax (EGFR (HCC827 cells)) [%] | DC50 [2] [nM] | Dmax [2] [%] | DC50 [1, 8] [nM] | DC50 [3, 9] [nM] | DC50 [4] [nM] | DC50 [5] [nM] | DC50 [6] [nM] | DC50 [1, 10] [nM] | DTC Dmax (%) ([3]; 16h treatment) | Dmax (EGFR WT (BaF3 WT cells); BaF3, read-out: WT Dmax (%)) [%] | DC50 ([3]; read-out: DTC DC50, 16h treatment) [nM] | Dmax (%) H1975 # 28 DTC [4] [%] | H1975 #23 DC Dmax (%) [6] [%]
4 | CCc1cc(Nc2ncc(Br)c(Nc3ccc4nccnc4c3P(C)(C)=O)n2)c(OC)cc1N1CCC(N2CCN(CCc3ccc(C4CCC(=O)NC4=O)cc3)CC2)CC1 (centres unmarked) [Example 1, 3-(4-(2-(4-(1-(4-((5-bromo-4-((5-(dimethylphosphoryl)quinoxalin-6-yl)amino)pyrimidin-2-yl)amino)-2-ethyl-5-methoxyphenyl)piperidin-4-yl)piperazin-1-yl)ethyl)phenyl)piperidine-2,6-dione] | > 10000 | 49.2 | 89.3 | 3.6 | 86.9 | 7.22 | 60.8 | – | – | – | – | – | – | – | – | – | – | –
5 | CCc1cc(Nc2ncc(Br)c(Nc3ccc4nccnc4c3P(C)(C)=O)n2)c(OC)cc1N1CCC(N2CCN(CCc3ccc(C4CCC(=O)NC4=O)c(F)c3)CC2)CC1 (centres unmarked) [Example 5, 3-(4-(2-(4-(1-(4-((5-bromo-4-((5-(dimethylphosphoryl)quinoxalin-6-yl)amino)pyrimidin-2-yl)amino)-2-ethyl-5-methoxyphenyl)piperidin-4-yl)piperazin-1-yl)ethyl)-2-fluorophenyl)piperidine-2,6-dione] | > 10000 | 47.9 | 90.4 | 2.56 | 83.9 | 4.66 | 84.1 | 13.1 | 4.96 | – | – | – | – | 96.75 | – | – | – | –
6 | CCc1cc(Nc2ncc(Br)c(Nc3ccc4nccnc4c3P(C)(C)=O)n2)c(OC)cc1N1CCC(N2CCN(CCCCCc3ccc(C4CCC(=O)NC4=O)cc3)CC2)CC1 (centres unmarked) [Example 7, 3-(4-(5-(4-(1-(4-((5-bromo-4-((5-(dimethylphosphoryl)quinoxalin-6-yl)amino)pyrimidin-2-yl)amino)-2-ethyl-5-methoxyphenyl)piperidin-4-yl)piperazin-1-yl)pentyl)phenyl)piperidine-2,6-dione] | > 10000 | 41.9 | 90.5 | 3.95 | 74.3 | > 156 | 49 | 36.4 | 18.2 | – | – | – | – | 95.15 | – | – | – | –
7 | CCc1cc(Nc2ncc(Br)c(Nc3ccc4nccnc4c3P(C)(C)=O)n2)c(OC)cc1N1CCC(N2CCN(C(=O)C3CCN(CC4CCN(c5ccc6c(c5)C(=O)N(C5CCC(=O)NC5=O)C6=O)CC4)CC3)CC2)CC1 (centres unmarked) [Example 63, 5-(4-((4-(4-(1-(4-((5-bromo-4-((5-(dimethylphosphoryl)quinoxalin-6-yl)amino)pyrimidin-2-yl)amino)-2-ethyl-5-methoxyphenyl)piperidin-4-yl)piperazine-1-carbonyl)piperidin-1-yl)methyl)piperidin-1-yl)-2-(2,6-dioxopiperidin-3-yl)isoindoline-1,3-dione] | > 10000 | 3.27 | 38.5 | 1.74 | 86.3 | – | – | > 2000 | 281 | – | – | – | – | 52.42 | – | – | – | –
8 | CCc1cc(Nc2ncc(Br)c(Nc3ccc4nccnc4c3P(C)(C)=O)n2)c(OC)cc1N1CCC(N2CCN(CCN(C)c3ccc4c(c3)CN(C3CCC(=O)NC3=O)C4=O)CC2)CC1 (centres unmarked) [Example 71, 3-(5-((2-(4-(1-(4-((5-bromo-4-((5-(dimethylphosphoryl)quinoxalin-6-yl)amino)pyrimidin-2-yl)amino)-2-ethyl-5-methoxyphenyl)piperidin-4-yl)piperazin-1-yl)ethyl)(methyl)amino)-1-oxoisoindolin-2-yl)piperidine-2,6-dione] | > 10000 | – | 80 | – | – | – | – | 11.5 | – | – | – | – | – | 81.19 | 31.4 | 7.52 | – | –
